Reference: patent publication US6448286B1, “Imino pyrrolidine derivatives useful as nitric oxide synthase inhibitors” (G.D. Searle & Co., priority 1993, dated 2002)
Counter-ions that a name gives are not always drawn. Like-named read-outs stand apart in the source and are kept apart here.

What was measured:
[1] = test system: intracellular iNOS in LPS-induced RAW 264.7 cells; test: Raw cell nitrite assay; assay type: cell-based; settings: Mus musculus, read-out: Raw Cell IC50
Experimental: RAW 264.7 cells are plated to confluency on a 96-well tissue culture plate grown overnight (17h) in the presence of LPS to induce NOS. […] The media was removed from each well and the cells are washed twice with Krebs-Ringers-Hepes (25 mM, pH 7.4) with 2 mg/ml glucose. The cells are then placed on ice and incubated with […] of buffer containing L-arginine (30 mM) +/− inhibitors for 1 h. The assay is initiated by warming the plate to 37° C. in a water bath for 1 h. […] To terminate the cellular assay, the plate of cells is placed on ice and the nitrite-containing buffer removed and analyzed for nitrite using a previously published fluorescent determination for nitrite. […] All values are the average of triplicate wells and are compared to a background-subtracted induced set of cells (100% value).

[2] = biological target: T1, Rat brain constitutive nitric oxide synthase (rnNOS) (Rattus norvegicus, UniProt P29476); test: Citrulline assay for nitric oxide synthase (cNOS); assay type: biochemical
T1 construct: prepared from an extract of rat cerebellum and partially purified by DEAE-Sepharose chromatography; from tissue; host or cells: rat cerebellum
Experimental: Nitric oxide synthase activity was measured by monitoring the conversion of [3H]-arginine to [3H]-citrulline. Mouse inducible nitric oxide synthase (miNOS) was prepared from an extract of LPS-treated RAW 264.7 cells and partially purified by DEAE-Sepharose chromatography. Rat brain constitutive nitric oxide synthase (rnNOS) was prepared from an extract of rat cerebellum and partially purified by DEAE-Sepharose chromatography. Enzyme and inhibitors were incubated at 37° C. for 15 minutes in a reaction volume of […] with the following components added to start the reaction: 50 mM Tris (pH 7.6), 1 mg/ml bovine serum albumin, 1 mM DTT, 2 mM CaCl2, 10 mM FAD, 10 mM tetrahydrobiopterin, […] L-arginine containing L-[2,3-3H]-arginine at 300 cpm/pmole and 1 mM NADPH. For constitutive NOS, 50 nM calmodulin was also added. The reaction was terminated by addition of cold stop buffer containing 10 mM EGTA, 100 mM HEPES, pH 5.5 and 1 mM citrulline. [3H]-Citrulline was separated by chromatography on Dowex 50W X-8 cation exchange resin and radioactivity determined with a liquid scintillation counter.

[3] = biological target: T2, Mouse inducible nitric oxide synthase (miNOS) (Mus musculus, UniProt P29477); test: biochemical; settings: for IC50: read-out: iNOS; for iNOS, % @ 10 μM: 10 μM compound
T2 construct: prepared from an extract of LPS-treated RAW 264.7 cells and partially purified by DEAE-Sepharose chromatography; endogenous in cells; host or cells: LPS-treated RAW 264.7 cells (mouse macrophage line)

[4] = test system: LPS-induced increase in plasma nitrites; test: In vivo assay: endotoxin (LPS)-induced plasma nitrites in rat; settings: Low Endotoxin in Rat Model
Experimental: Rats were treated with an intraperitoneal injection of 10 mg/kg of endotoxin (LPS) with or without oral administration of the nitric oxice synthase inhibitors. Plasma nitrites were measured 5 hours post-treatment.
IP is the abbreviation for 2-iminopiperidine. LPS is the abbreviation for endotoxin

[5] = RAW264.7, nitrite production, RAW 264.7 cells, LPS-induced, 1 h at 37° C.
[6] = conversion of [3H]-arginine to [3H]-citrulline, 37° C., 15 minutes
[7] = printed as % only (inhibition not stated)
[8] = conversion of [3H]-arginine to [3H]-citrulline, 50 nM calmodulin added, read-out: cNOS IC50
[9] = 100 μM compound, printed as % only (inhibition not stated)

T2 sequence (P29477 whole entry): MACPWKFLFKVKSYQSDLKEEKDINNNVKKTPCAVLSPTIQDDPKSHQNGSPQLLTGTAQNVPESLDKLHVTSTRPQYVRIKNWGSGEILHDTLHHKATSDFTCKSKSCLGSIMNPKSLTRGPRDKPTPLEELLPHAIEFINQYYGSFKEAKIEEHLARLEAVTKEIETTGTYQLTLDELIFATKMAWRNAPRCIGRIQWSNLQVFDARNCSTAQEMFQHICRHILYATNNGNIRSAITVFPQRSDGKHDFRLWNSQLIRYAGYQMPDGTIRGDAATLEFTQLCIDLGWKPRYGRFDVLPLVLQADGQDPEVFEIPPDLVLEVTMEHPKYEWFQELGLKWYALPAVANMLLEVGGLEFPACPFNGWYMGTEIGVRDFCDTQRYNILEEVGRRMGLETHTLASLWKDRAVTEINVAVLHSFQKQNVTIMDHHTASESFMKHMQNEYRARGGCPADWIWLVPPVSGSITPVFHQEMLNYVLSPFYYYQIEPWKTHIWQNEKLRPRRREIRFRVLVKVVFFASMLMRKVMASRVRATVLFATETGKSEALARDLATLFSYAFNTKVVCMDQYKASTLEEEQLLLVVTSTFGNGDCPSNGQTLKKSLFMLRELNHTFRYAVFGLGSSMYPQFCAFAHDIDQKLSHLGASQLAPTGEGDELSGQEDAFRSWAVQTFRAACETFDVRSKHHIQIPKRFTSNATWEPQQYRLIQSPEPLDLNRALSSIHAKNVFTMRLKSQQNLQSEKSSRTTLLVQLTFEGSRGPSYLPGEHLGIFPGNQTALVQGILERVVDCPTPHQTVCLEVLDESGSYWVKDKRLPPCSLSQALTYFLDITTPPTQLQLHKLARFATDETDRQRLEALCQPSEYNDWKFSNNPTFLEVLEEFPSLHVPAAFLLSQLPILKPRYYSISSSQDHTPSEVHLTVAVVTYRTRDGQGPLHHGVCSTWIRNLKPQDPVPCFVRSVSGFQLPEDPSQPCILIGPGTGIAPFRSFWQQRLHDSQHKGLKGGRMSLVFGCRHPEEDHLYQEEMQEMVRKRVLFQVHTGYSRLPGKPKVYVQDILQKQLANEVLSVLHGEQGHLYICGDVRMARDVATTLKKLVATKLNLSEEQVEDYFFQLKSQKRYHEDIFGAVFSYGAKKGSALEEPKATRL
T1 sequence (P29476 whole entry): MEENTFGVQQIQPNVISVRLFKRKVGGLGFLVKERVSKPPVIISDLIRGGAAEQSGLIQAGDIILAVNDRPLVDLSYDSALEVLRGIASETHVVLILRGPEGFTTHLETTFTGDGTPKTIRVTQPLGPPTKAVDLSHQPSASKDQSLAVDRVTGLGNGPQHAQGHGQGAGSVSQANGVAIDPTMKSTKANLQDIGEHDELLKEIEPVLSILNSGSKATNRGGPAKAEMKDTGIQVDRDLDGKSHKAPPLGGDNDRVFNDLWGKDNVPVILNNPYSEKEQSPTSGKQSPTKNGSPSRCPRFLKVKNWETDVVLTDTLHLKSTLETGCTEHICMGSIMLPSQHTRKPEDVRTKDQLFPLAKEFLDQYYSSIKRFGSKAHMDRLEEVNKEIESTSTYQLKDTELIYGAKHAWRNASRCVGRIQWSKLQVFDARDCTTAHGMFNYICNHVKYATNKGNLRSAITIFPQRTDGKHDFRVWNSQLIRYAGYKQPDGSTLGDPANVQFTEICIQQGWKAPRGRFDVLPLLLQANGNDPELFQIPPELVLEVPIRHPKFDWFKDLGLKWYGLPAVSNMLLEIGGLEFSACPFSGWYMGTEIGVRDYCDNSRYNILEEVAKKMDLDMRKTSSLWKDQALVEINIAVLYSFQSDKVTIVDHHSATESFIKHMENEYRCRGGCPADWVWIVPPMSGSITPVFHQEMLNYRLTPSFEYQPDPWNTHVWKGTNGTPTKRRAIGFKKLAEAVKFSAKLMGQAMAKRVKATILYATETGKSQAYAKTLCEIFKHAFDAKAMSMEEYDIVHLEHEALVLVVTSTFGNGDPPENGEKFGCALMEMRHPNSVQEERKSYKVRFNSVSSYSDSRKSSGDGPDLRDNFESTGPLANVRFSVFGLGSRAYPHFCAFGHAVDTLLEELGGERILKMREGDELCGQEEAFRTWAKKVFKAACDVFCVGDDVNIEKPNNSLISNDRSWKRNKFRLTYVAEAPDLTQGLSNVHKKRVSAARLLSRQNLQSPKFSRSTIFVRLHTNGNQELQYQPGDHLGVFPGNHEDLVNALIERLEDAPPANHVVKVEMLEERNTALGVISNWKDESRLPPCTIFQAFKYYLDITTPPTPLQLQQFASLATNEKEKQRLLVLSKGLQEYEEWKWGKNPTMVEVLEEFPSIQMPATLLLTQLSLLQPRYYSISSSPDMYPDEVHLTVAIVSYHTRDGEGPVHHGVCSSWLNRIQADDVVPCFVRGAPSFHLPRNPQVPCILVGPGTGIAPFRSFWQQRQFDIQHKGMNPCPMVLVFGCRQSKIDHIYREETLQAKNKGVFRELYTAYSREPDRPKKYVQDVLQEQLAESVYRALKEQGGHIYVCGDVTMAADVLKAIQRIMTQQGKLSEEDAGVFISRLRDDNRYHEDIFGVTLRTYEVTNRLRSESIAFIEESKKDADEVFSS

IC50 [3, 6] | Compound | IC50 [2] | IC50 ([1]; RAW264.7, 1 h) | also measured
3.2 µM | CC1CCC(N)=N1 (centres unmarked) [Example 5, 2-Imino-5-methyltetramethyleneimine hydriodide] | 9.4 µM | – | IC50 [1, 5]: 18 µM
1.5 µM | CC1CCCN=C1N (centres unmarked) [Example 9, 2-imino-3-methylpiperidine acetate] | 2.01 µM | – | –
1.4 µM | CC1CN=C(N)C1 (centres unmarked) [Example 182, 4-methylpyrrolidin-2-imine, monohydrochloride] | 14 µM | – | –
7 µM | C[C@@H]1CCCC(N)=NC1 [Example 90, hexahydro-6R-methyl-1H-azepin-2-imine, monohydrochloride] | 46 µM | – | –
0.8 µM | NC1=NCCCS1 [Example 17, 2-Imino-3-thiapiperidine hydrochloride] | 2.7 µM | 28 µM | –
0.043 µM | CC1CC(N)=NC(C)C1 (centres unmarked) [Example 10, 2-imino-4,6-dimethylpiperidine acetate] | – | – | IC50 [2, 8]: 0.127 µM
0.16 µM | CC1CCCC(=N)N1.Cl (centres unmarked) [Example 8, 2-Imino-6-methylpiperidine hydrochloride] | 0.99 µM | – | melting point: 160 to 162 °C
2 µM | CC1CCC(N)=NC1 (centres unmarked) [Example 7, 2-Imino-5-methylpiperidine acetate] | 13.3 µM | – | –

Continued, compound first:

Compound | IC50 [3, 6] | IC50 [2] | IC50 ([1]; RAW264.7, 1 h) | also measured
N=C1NCC(CCl)O1 (centres unmarked) [Example 20, 5-Chloromethyl-2-iminooxazolidine] | 1 µM | 5 µM | – | IC50 [1, 5]: 160 µM
CC1CCC(O)C(=N)N1 (centres unmarked) (as salt: acetate) [Example 277, 3-hydroxy-2-imino-6-methylpiperidine acetate] | – | – | – | melting point: 158 to 160 °C
CC1CCN=C(N)C1 (centres unmarked) [Example 6, 2-Imino-4-methylpiperidine acetate] | – | – | – | IC50 [3]: 0.055 µM
CCCC1CCCCC(=N)N1.Cl (centres unmarked) [Example 114, hexahydro-7-propyl-1H-azepin-2-imine, monohydrochloride] | – | 7.8 µM | 0.55 µM | ED50 ([4]; po, administered p.o.): 3.4 mg/kg
NC1=NCCC1 [Example 12, 2-iminopyrrolidine hydrochloride] | – | 32 µM | 1.8 µM | IC50 [3]: 5.1 µM
CCOC(=O)CCCC[C@@H]1SC[C@@H]2NC(=N)NC21 (some centres unmarked) [Example 22, 2-Iminobiotin ethyl ester] | 30 µM | 1300 µM | – | IC50 [1, 5]: > 1000 µM
CCC(CC)CC1CCCCC(=N)N1.Cl (centres unmarked) [Example 198, 7-(2-ethylbutyl)hexahydro-1H-azepin-2-imine, monohydrochloride] | 2.1 µM | 652 µM | 3.3 µM | ED50 ([4]; determined using iv infusion): 5 mg/kg
N=C1NCCO1 [Example 19, 2-Iminooxazolidine] | – | – | – | iNOS, % @ 10 μM [3, 7]: 42% @ 10 μM
Cl.N=C1CC(C(=O)O)CCN1 (centres unmarked) | – | – | – | melting point: 230 to 234 °C
N=C1NCCCC1O (centres unmarked) [Example 11, 2-Imino-3-hydroxypiperidine acetate] | 0.92 µM | 2.77 µM | – | –
NC1=NCCCN1 [Example 14, 2-Iminotetrahydropyrimidine hemihydrosulfate] | – | – | > 1000 µM | IC50 [2, 8]: 23 µM
CN1CCCNC1=N [Example 23, 1-Methyl-2-iminotetrahydropyrimidine] | – | – | – | iNOS, % @ 10 μM [3, 7]: 41% @ 10 μM
N=C1NCCN1 [Example 15, 2-Iminoimidazolidine] | – | – | – | iNOS, % @ 10 μM [3, 7]: 8% @ 10 μM
NC1=NC(c2ccccc2)CCCC1 (centres unmarked) [Example 192, hexahydro-7-phenyl-1H-azepin-2-imine, monohydrochloride] | – | 179 µM | 31 µM | IC50 [3]: 12 µM
CC1CCCNC1=N (centres unmarked) (as salt: acetate) [Example 9, 2-imino-3-methylpiperidine acetate] | – | – | – | melting point: 88 to 100 °C
C=CCC1CCCCNC1=N (centres unmarked) [Example 107, hexahydro-3-(2-propenyl)-1H-azepin-2-imine, monohydrochloride] | 3.8 µM | 342 µM | 15 µM | –
N=C1NCCCC1O (centres unmarked) (as salt: acetate) [Example 11, 2-Imino-3-hydroxypiperidine acetate] | – | – | – | melting point: 128 to 130 °C
CC1(C)CCN=C(N)C1 [Example 170, 4,4-dimethylpiperidin-2-imine, monohydrochloride] | – | 53 µM | – | –
CN1CCCCC1=N (as salt: hydroiodid) | – | – | – | melting point: 157 to 158 °C
CC1CCNC1=N (centres unmarked) [Example 4, 2-Imino-3-methyltetramethyleneimine hydriodide] | 4.6 µM | 2.4 µM | 14 µM | –

Compound | IC50 [3, 6] | IC50 [2] | IC50 ([1]; RAW264.7, 1 h) | also measured
N=C1CCCCN1 [Example 13, 2-Iminopiperidine hydrochloride] | 0.6 µM | 2 µM | 14 µM | –
C=CCC1CCCCC(=N)N1.Cl (centres unmarked) [Example 108, hexahydro-7-(2-propenyl)-1H-azepin-2-imine, monohydrochloride] | – | 19 µM | 0.57 µM | ED50 ([4]; po, administered p.o.): 3.7 mg/kg
NC1=NCCCO1 [Example 18, hydrochloride] | 0.8 µM | 6 µM | 6 µM | –
CC1CCC(=N)NC1 (centres unmarked) (as salt: acetate) [Example 7, 2-Imino-5-methylpiperidine acetate] | – | – | – | melting point: 175 to 178 °C
NC1=NCCCCCC1 [Example 1, 2-Imino-heptamethyleneimine hydrochloride] | 2.1 µM | 13.3 µM | 60 µM | –
N=C1N[C@H]2[C@H](CS[C@H]2CCCCC(=O)O)N1 [Example 21, 2-Iminobiotin] | 40 µM | – | > 1000 µM | IC50 [2, 8]: 500 µM
CN=C1CCCCCN1 (as salt: hydroiodid) | – | – | – | melting point: 169 to 171 °C
CCC1NC(=N)CC1C (centres unmarked) [Example 217, 5-ethyl-4-methylpyrrolidin-2-imine, monohydrochloride] | 0.17 µM | 1.6 µM | 0.25 µM | –
CCC1CCCCNC1=N (centres unmarked) [Example 60, 3-ethyl-hexahydro-1H-azepin-2-imine, monohydrochloride] | – | 32 µM | 3.5 µM | –
CC1CC(=N)NC(C)C1 (centres unmarked) (as salt: acetate) [Example 10, 2-imino-4,6-dimethylpiperidine acetate] | – | – | – | melting point: 163 to 166 °C
CC1CCNC(=N)CC1 (centres unmarked) [Example 70, hexahydro-5-methyl-1H-azepin-2-imine, monohydrochloride] | 5.9 µM | 32 µM | 24 µM | –
Cl.N=C1CCC2=C(CCCC2)N1 [Example 3, 3,4,5,6,7,8-hexahydro-2[1H]-quinolineimine hydroiodide] | – | – | – | iNOS, % @ 10 μM [3, 7]: 43% * 10 μM; melting point: 150 to 155 °C
Cl.N=C1CCCCC(C2CCCCC2)N1 (centres unmarked) [Example 96, 7-cyclohexyl-hexahydro-1H-azepin-2-imine, monohydrochloride] | 9.3 µM | 1400 µM | – | ED50 ([4]; po, administered p.o.): 3.8 mg/kg
CCCCC1CCCCC(=N)N1.Cl (centres unmarked) [Example 188, 7-butylhexahydro-1H-azepin-2-imine, monohydrochloride] | 0.55 µM | 106 µM | 0.65 µM | ED50 ([4]; po, administered p.o.): 3.7 mg/kg
Cl.N=C1CCc2ccccc2N1 [Example 164, 1,2,3,4-tetrahydroquinolin-2-imine, monohydrochloride] | – | – | – | cNOS, % @ 100 μM [2, 9]: 74% @ 100 μM; iNOS, % @ 100 μM [3, 9]: 60% @ 100 μM
CN1CCCCCC1=N (as salt: hydroiodid) | – | – | – | melting point: 137 to 139 °C
N=C1CCCCCCCN1 [Example 2, 2-Imino-octamethyleneimine hydrochloride] | 2.2 µM | 9.9 µM | > 1000 µM | –
N=C1NCCS1 [Example 16, 2-Iminothiazolidine hydrochloride] | – | – | – | IC50 [1, 5]: 4.3 µM
Cl.N=C1NC[C@H]2CCCC[C@H]12 (relative stereo) [Example 173, (trans)-octahydro-2H-isoindol-1-imine, monohydrochloride] | – | – | – | iNOS, % @ 10 μM [3, 7]: 42% @ 10 μM
